We go through four molecules from paper PMC8399565, “Fluorescence Cross-Correlation Spectroscopy Yields True Affinity and Binding Kinetics of Plasmodium Lactate Transport Inhibitors” (Pharmaceuticals, 2021).

Entries after “also recorded” stand apart in the source; their conditions may differ. Where two headings read alike, the source gives them in different places.

The target of one test is T1, PfFNT wt-GFP (Plasmodium falciparum, UniProt O77389).
T1 construct: The DNA of full-length PfFNT from Plasmodium falciparum 3D7 was cloned as a C-terminal GFP fusion; expressed in transfected cells; intact cells for imaging, LMNG-solubilized membranes or lysates for FCCS
T1 sequence (O77389 whole entry, the tested form may be a part): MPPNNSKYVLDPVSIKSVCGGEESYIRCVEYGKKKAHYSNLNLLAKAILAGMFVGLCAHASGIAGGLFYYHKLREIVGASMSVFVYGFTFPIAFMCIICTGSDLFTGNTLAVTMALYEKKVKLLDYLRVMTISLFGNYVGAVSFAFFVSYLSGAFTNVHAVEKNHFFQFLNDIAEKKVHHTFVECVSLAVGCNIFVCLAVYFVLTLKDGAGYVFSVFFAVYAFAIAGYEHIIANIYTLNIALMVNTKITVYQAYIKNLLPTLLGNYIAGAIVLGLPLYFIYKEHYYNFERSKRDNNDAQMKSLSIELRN
The test is described as follows: FCCS equilibrium saturation binding to solubilized PfFNT wildtype. To be noted: for Active Receptor (%): fraction of PfFNT-GFP involved in binding at saturation; for obtained concentration of complexes in saturation binding: same sample of solubilized membranes for both tracers. The method, then:
A total of 20 µL of solubilized membranes from HEK cells expressing PfFNT wildtype or G107S were transferred to a glass-bottom 384-well microtiter plate and analyzed for expression levels via GFP fluorescence intensity as well as diffusion times. This yielded a PfFNT protein concentration of 10 nM after membrane preparation and solubilization. The average dwell time was determined to 373 µs, which is in good agreement with membrane proteins of equal size. The signal fluctuations could be fitted to a 1-component diffusion model, indicating homogeneously monodisperse proteins (Figure S2).
Next, we determined inhibitor binding affinities for both PfFNT and its G107S mutant. Solubilized cell membranes containing PfFNT-GFP at a concentration of 10 nM were incubated for 1 h at ambient temperature with increasing concentrations of labeled inhibitor molecules to obtain saturation binding curves and to calculate the dissociation constant (KD) of the interactions. Equilibrium binding experiments were pipetted in biological triplicates and carried out and analyzed as described in Antoine et al..
A cell pellet was resuspended in 1 mL of ice-cold TBS (50 mM Tris-HCl (pH 7.4) and 150 mM NaCl) supplemented with cOmplete™ Protease Inhibitor Cocktail (cat. no 11697498001, Roche, Switzerland) and broken by sonication on ice, using an Ultrasonic homogenizer SONOPULS HD 2070 (Bandelin, Germany). Cell debris was removed by centrifugation for 5 min at 1100× g at 4 °C, and membranes were harvested from the cleared lysate by subsequent centrifugation at 21,000× g. The resulting pellet containing cellular membranes was lysed using a Dounce homogenizer. The receptor was solubilized by incubation in 1% LMNG (cat. no NG310, Anatrace, USA) or in another detergent (DDM, DM, CHAPS, CHS, LDAO) when conducting tests to determine the best solubilization conditions. The insolubilized membrane material was removed by centrifugation for 1 h at 21,000× g at 4 °C, and the supernatant was collected and directly subjected to FCCS analysis or stored at −80 °C.
FCCS measurements were conducted in 384-well glass-bottom plates (cat. no PS96B-G175, SWISSCI, Switzerland) using an Insight plate reader (Evotec Technologies, Germany) fitted with a U-Apo300 40x water immersion lens, NA 1.15 (Olympus, Japan). The 488 nm laser line of an argon-ion laser and the light of a 633 nm helium–neon laser were used for excitation. Fluorescence fluctuations were recorded for 8 s with 12 repetitions and analyzed afterward using FCS+plus Analyze 1.1P (Evotec technologies, Version 1.2.5g). FCCS analysis was carried out as described previously. Briefly, for measuring the dissociation constant (KD), a titration series of 12 dilutions was prepared, where the concentration of the lysates obtained from HEK cells expressing GFP-fusions of PfFNT WT and G107S was kept constant, and the concentration of the labeled binding partner (BH296-DY647 and BH267.meta-DY647, respectively) was varied. The IC50 values were calculated by plotting the concentration from the dual labeled complex against the concentration of the competitor titrated over a concentration range from 10 µM to 10 pM. Samples were incubated for 1 h at room temperature prior to FCCS measurements to allow the formation of drug target complexes. From the resulting IC50 values, the Ki values were obtained by application of the Cheng Prusoff equation [17]. To assess the rate constants, time-resolved measurements were carried out at different concentrations of the labeled ligand. […] All KD and IC50 values, as well as kinetic parameters, were determined from three independently repeated experiments. The figures show one representative measurement; however, the calculated KD, Ki, kon and koff values are presented as an average of the three measurements ± SD. Error bars denote ± SEM.

The target of the next test is T2, PfFNT G107S-GFP (Plasmodium falciparum, UniProt O77389, G107S).
T2 construct: The DNA of full-length PfFNT from Plasmodium falciparum 3D7 was cloned as a C-terminal GFP fusion; expressed in transfected cells; intact cells for imaging, LMNG-solubilized membranes for FCCS
T2 sequence (O77389 whole entry G107S, the tested form may be a part): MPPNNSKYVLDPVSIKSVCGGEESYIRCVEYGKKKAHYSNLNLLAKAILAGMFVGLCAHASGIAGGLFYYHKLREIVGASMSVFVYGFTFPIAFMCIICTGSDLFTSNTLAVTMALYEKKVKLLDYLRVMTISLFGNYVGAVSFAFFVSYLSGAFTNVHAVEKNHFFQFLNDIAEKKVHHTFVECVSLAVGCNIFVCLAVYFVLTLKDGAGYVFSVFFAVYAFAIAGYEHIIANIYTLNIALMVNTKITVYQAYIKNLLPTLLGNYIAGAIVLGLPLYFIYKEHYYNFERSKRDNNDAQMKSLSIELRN
Put plainly: Live cell confocal imaging, co-localization with PfFNT G107S-GFP in HEK293 cells. Type of test: cell-based. To be noted: for co-localization / membrane localization: 50 nM probe, 0.05% Triton X-100; for competition of BH267.meta-DY647 membrane localization by unlabeled compound: 100 µM unlabeled compound. The text has this:
A PfFNT G107S mutant generated by sublethal dosing of BH296 in vitro parasite cultures has gained attention as it confers resistance against BH296, but the introduction of a scaffold nitrogen atom (BH267.meta; Figure 1) restored the effectiveness of the inhibitor [11]. The G107S mutation site is located at the cytoplasmic entrance of PfFNT and narrows the transport path precluding the binding of BH296 via sterical hinderance of the phenyl moiety of the compound. Exchange of the carbon atom in the meta-position of the aromatic ring of BH296 for a nitrogen atom introduced a hydrogen bond acceptor site for the serine hydroxyl of the resistance mutation and restored binding to the mutant PfFNT G107S. We analyzed the interaction of BH267.meta by cellular imaging. For this, we generated labeled BH267.meta-DY647 (Figure 1), expressed PfFNT G107S in HEK cells, and incubated the cells with BH296-DY647 or BH 267.meta-DY647 after treatment with 0.05% Triton X-100.
Whether these differences in signal intensity can be attributed to different affinities, to expression levels of the target protein, or to the cellular localization cannot be concluded from imaging-based experiments but requires biophysical analytical methods. However, the observation confirms previous findings that show the activity of BH267.meta on PfFNT G107S.
The confocal laser scanning microscopy was performed on an LSM 510 confocal microscope connected to an Axiovert 200M equipped with a C-Apochromat 40×/1.2 W water immersion objective (Carl Zeiss, Germany). The red fluorophore (Dy-647) was excited using a 633 nm helium–neon laser, whereas the green fluorophore (GFP) was excited using a 488 nm argon-ion laser.

Turning to `CCN1/C(=C/C=C/C=C/C2=[N+](CC)c3ccc(S(=O)(=O)O)cc3C2(C)CCCC(=O)NCCOCCOCCOCCOCCC(=O)NCCCOc2ccc(C(=O)/C=C(\O)C(F)(F)C(F)(F)F)cn2)C(C)(C)c2cc(S(=O)(=O)[O-])ccc21` (stereo not drawn) [BH267.meta-DY647], on PfFNT wt-GFP, the Kd was 72 nM and the “Active Receptor (%)” value is 100%. Besides, the “co-localization / membrane localization” value on PfFNT G107S-GFP is listed as “co-localizes; also recorded: clear membrane stain”.
`O=C(C=C(O)C(F)(F)C(F)(F)F)c1ccc(O)cc1` [BH296, 4,4,5,5,5-pentafluoro-3-hydroxy-1-(4-hydroxyphenyl)pent-2-en-1-one]: on PfFNT wt-GFP, the Kd stood at 67 nM and the “obtained concentration of complexes in saturation binding” value was found to be 3 nM. On PfFNT G107S-GFP, the “co-localization / membrane localization” value is “did not localize to membranes” and the “competition of BH267.meta-DY647 membrane localization by unlabeled compound” value is on record as “cannot compete”.
For the molecule `CCN1/C(=C/C=C/C=C/C2=[N+](CC)c3ccc(S(=O)(=O)O)cc3C2(C)CCCC(=O)NCCOCCOCCOCCOCCC(=O)NCCCOc2ccc(C(=O)/C=C(\O)C(F)(F)C(F)(F)F)cc2)C(C)(C)c2cc(S(=O)(=O)[O-])ccc21` (stereo not drawn) [BH296-DY647], at PfFNT wt-GFP, the Kd is 67 ± 6 nM.
Regarding `O=C(/C=C(\O)C(F)(F)C(F)(F)F)c1cccnc1` [BH267.meta], the Kd at PfFNT wt-GFP (fluorescent probe titrated against 10 nM PfFNT-GFP, 1% LMNG, 1 h ambient temperature, read-out: KD (equilibrium saturation binding)) came to 72 nM. For the same molecule, on PfFNT wt-GFP, the “Active Receptor (%)” value is 100% and the “obtained concentration of complexes in saturation binding” value came out at 6 nM. Further, at PfFNT G107S-GFP, the “competition of BH267.meta-DY647 membrane localization by unlabeled compound” value is “prevents membrane localization; also recorded: could be competed”.
